In brackets after ≈: the same amount, converted by molar mass.
Tested on: anti-1-NAP monoclonal antibody (mAb)
Assay: ciELISA with the obtained mAb under optimized conditions
Format: binding, mouse
Details: for CR (cross-reactivity): CR (%) = [IC50 (NAP)/IC50 (cross-reactant)] × 100, n=3; for IC50: Table 2, optimized condition, n=3

SMILES	CR (cross-reactivity) [%]	IC50 [mg/L]
Oc1cccc2c(O)cccc12 [1,5-dihydroxy naphthalene]	14.3	0.0874 (≈ 0.546 µM)
Oc1cccc2cccc(O)c12 [1,8-dihydroxy naphthalene]	0.3	4.3034 (≈ 26.9 µM)
Oc1cccc2ccccc12 [Hapten 1-naphthol, 1-naphthol]	100	0.0125 (≈ 0.0867 µM)
Oc1ccc2c(O)cccc2c1 [1,6-dihydroxy naphthalene]	2.5	0.5028 (≈ 3.14 µM)
Oc1cc(O)c2ccccc2c1 [1,3-dihydroxy naphthalene]	6.9	0.178 (≈ 1.11 µM)
CNC(=O)Oc1cccc2ccccc12 [Carbaryl]	4.2	0.3007 (≈ 1.49 µM)
Oc1ccc2ccccc2c1 [Hapten 2-naphthol, 2-naphthol]	1.2	1.005 (≈ 6.97 µM)
Oc1ccc(O)c2ccccc12 [1,4-dihydroxy naphthalene]	6.2	0.2007 (≈ 1.25 µM)
Oc1ccc2cc(O)ccc2c1 [2,6-dihydroxy naphthalene]	0.4	2.8397 (≈ 17.7 µM)
Oc1ccc2cccc(O)c2c1 [1,7-dihydroxy naphthalen]	1.4	0.8817 (≈ 5.5 µM)
